Here are results for 25 molecules from US20220389031A1, “MACROCYCLIC SULFONYLAMIDE DERIVATIVES USEFUL AS NLRP3 INHIBITORS” (Inflazome Limited, priority 2019, published 2022).

Experiment [1] concerns the target T1, NLRP3 (Homo sapiens, UniProt Q96P20). Put plainly: THP-1 cells pyroptosis assay (LPS + nigericin, resazurin readout). It counts as cell-based. The arrangement: Seed THP-1 cells (25,000 cells/well) containing 1.0 μg/ml LPS; host or cells: THP-1 cells. Conditions: NLRP3 inhibitory activity, 1.0 μg/ml LPS, 3 hrs compound, nigericin 5 μM 1 hr. The procedure: THP-1 cells (ATCC #TIB-202) were grown in RPMI containing L-glutamine (Gibco #11835) supplemented with 1 mM sodium pyruvate (Sigma #S8636) and penicillin (100 units/ml)/streptomycin (0.1 mg/ml) (Sigma #P4333) in 10% Fetal Bovine Serum (FBS) (Sigma #F0804). The cells were routinely passaged and grown to confluency (˜10^6 cells/ml). On the day of the experiment, THP-1 cells were harvested and resuspended into RPMI medium (without FBS). The cells were then counted and viability (>90%) checked by Trypan blue (Sigma #T8154). Appropriate dilutions were made to give a concentration of 625,000 cells/ml. To this diluted cell solution was added LPS (Sigma #L4524) to give a […] Final Assay Concentration (FAC). 40 μl of the final preparation was aliquoted into each well of a 96-well plate. The plate thus prepared was used for compound screening.
The following method step-by-step assay was followed for compound screening. • 1. Seed THP-1 cells (25,000 cells/well) containing 1.0 μg/ml LPS in 40 μl of RPMI medium (without FBS) in 96-well, black walled, clear bottom cell culture plates coated with poly-D-lysine (VWR #734-0317) • 2. Add 5 μl compound (8 points half-log dilution, with 10 μM top dose) or vehicle (DMSO 0.1% FAC) to the appropriate wells • 3. Incubate for 3 hrs at 37° C., 5% CO2 • 4. Add 5 μl nigericin (Sigma #N7143) (FAC 5 μM) to all wells • 5. Incubate for 1 hr at 37° C., 5% CO2 • 6. At the end of the incubation period, spin plates at 300×g for 3 mins and remove supernatant • 7. Then add 50 μl of resazurin (Sigma #R7017) (FAC 100 μM resazurin in RPMI medium without FBS) and incubate plates for a further 1-2 hrs at 37° C. and 5% CO2 • 8. Plates were read in an Envision reader at Ex 560 nm and Em 590 nm • 9. IC50 data is fitted to a non-linear regression equation (log inhibitor vs response-variable slope 4-parameters)
On the technique in general: The colour change of resazurin is a common sign of viable cells or microbes.

Experiment [2] has as its target T1, NLRP3. Put plainly: Human whole blood IL-1β release assay (LPS + nigericin, AlphaLisa). It counts as cell-based. The arrangement: Plate out 80 μl of whole blood containing 1 μg/ml of LPS; from tissue; host or cells: human whole blood from healthy volunteer donors. Particulars: NLRP3 inhibitory activity, 1 μg/ml LPS, 3 hrs compound, nigericin 10 μM 1 hr, read-out: HWB IC50. How it is done:
For systemic delivery, the ability to inhibit NLRP3 when the compounds are present within the bloodstream is of great importance. For this reason, the NLRP3 inhibitory activity of a number of compounds in human whole blood was investigated in accordance with the following protocol.
Human whole blood in Li-heparin tubes was obtained from healthy donors from a volunteer donor panel. • 1. Plate out 80 μl of whole blood containing 1 μg/ml of LPS in 96-well, clear bottom cell culture plate (Corning #3585) • 2. Add 10 μl compound (8 points half-log dilution with 10 μM top dose) or vehicle (DMSO 0.1% FAC) to the appropriate wells • 3. Incubate for 3 hrs at 37° C., 5% CO2 • 4. Add 10 μl nigericin (Sigma #N7143) (10 μM FAC) to all wells • 5. Incubate for 1 hr at 37° C., 5% CO2 • 6. […] IL-1β was measured according to the manufacturer protocol (Perkin Elmer-AlphaLisa IL-1 Kit AL220F-5000) • 8. IC50 data is fitted to a non-linear regression equation (log inhibitor vs response-variable slope 4-parameters)

T1 sequence (Q96P20 whole entry): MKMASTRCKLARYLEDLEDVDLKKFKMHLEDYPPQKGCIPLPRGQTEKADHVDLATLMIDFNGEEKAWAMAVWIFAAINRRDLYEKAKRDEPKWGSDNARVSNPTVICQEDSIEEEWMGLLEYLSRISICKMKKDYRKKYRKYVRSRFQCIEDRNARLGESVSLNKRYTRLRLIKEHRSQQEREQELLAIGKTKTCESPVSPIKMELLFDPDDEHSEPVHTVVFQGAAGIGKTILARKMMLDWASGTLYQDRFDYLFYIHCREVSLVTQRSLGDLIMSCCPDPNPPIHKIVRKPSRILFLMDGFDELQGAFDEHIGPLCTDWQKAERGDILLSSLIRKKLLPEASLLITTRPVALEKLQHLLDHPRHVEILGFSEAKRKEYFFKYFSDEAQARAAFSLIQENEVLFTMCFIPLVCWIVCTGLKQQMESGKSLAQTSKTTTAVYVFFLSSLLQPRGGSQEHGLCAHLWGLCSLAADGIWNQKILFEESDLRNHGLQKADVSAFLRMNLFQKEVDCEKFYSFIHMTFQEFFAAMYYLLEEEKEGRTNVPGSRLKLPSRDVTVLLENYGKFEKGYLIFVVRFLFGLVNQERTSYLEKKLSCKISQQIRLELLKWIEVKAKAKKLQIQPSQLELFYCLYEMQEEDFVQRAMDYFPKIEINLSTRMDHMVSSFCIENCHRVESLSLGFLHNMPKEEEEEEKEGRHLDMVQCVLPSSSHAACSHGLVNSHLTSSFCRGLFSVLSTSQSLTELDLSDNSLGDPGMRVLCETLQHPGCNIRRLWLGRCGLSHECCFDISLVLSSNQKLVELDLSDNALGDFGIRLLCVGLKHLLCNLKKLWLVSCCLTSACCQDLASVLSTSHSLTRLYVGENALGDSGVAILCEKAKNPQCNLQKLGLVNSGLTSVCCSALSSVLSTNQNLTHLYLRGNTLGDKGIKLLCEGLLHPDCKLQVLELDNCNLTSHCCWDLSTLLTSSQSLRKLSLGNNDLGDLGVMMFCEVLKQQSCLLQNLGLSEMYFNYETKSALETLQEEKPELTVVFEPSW

Turning to `CC(C)c1cccc2c1CC(=O)NS(=O)(=O)c1ccn(n1)C(C)(C)COc1cc-2ccn1` [Example 1, 16,16-dimethyl-6-(propan-2-yl)-18-oxa-11λ^6-thia-10,15,20,24-tetraaza-tetracyclo[17-3-1-1^12,15.0^2,7]tetracosa-1(22),2(7),3,5,12(24),13,19(23),20-octaene-9,11,11-trione], the IC50 (in general, the concentration that inhibits the measured activity by half) in experiment [1] lay within 1000 to 5000 nM; in experiment [2] it was 1 to 5 µM.

`Cc1ccc(C(C)C)c2c1-c1ccnc(c1)OCC(C)(C)n1ccc(n1)S(=O)(=O)NC(=O)C2` [Example 2]: the results for the IC50 in experiment [1] and in experiment [2] were 1000 to 5000 nM and 0.5 to 1 µM, respectively.

As for `CC(C)c1cccc2c1CC(=O)NS(=O)(=O)c1cc(CN(C)C)n(n1)CCCCCOc1cc-2ccn1` [Example 3], the IC50 was 5000 to 10000 nM in experiment [1] and 5 to 10 µM in experiment [2].

Regarding `CC(C)c1cccc2c1CC(=O)NS(=O)(=O)c1ccn(n1)CCOc1cc-2ccn1` [Example 4], the IC50 in experiment [1] lay in the range of 1000 to 5000 nM; in experiment [2], 5 to 10 µM.

For `CC(C)c1cccc2c1CC(=O)NS(=O)(=O)c1cc(n(C(C)C)n1)CCOc1cc-2ccn1` [Example 10], the IC50 in experiment [1] was in the range of 1000 to 5000 nM; in experiment [2], 1 to 5 µM.

With `CC(C)c1cccc2c1CC(=O)NS(=O)(=O)c1cc(cc(C(C)(C)O)c1)CCOc1cc-2ccn1` [Example 11], the IC50 fell in the range of 100 to 500 nM in experiment [1] and 1 to 5 µM in experiment [2].

For the molecule `Cc1ccc(C(C)C)c2c1-c1ccnc(c1)OCC(C)(C)n1cc(F)c(n1)S(=O)(=O)NC(=O)C2` [Example 12], the IC50 lay in the range of 500 to 1000 nM in experiment [1] and 0.5 to 1 µM in experiment [2].

Consider `Cc1ccc(C(C)C)c2c1-c1ccnc(c1)OCCn1cc(F)c(n1)S(=O)(=O)NC(=O)C2` [Example 13], for which the IC50 in experiment [1] lay in the range of 1000 to 5000 nM; in experiment [2], 1 to 5 µM.

With `CC(C)c1cc(F)cc2c1CC(=O)NS(=O)(=O)c1nn(cc1F)C(C)(C)COc1cc-2ccn1` [Example 15], the IC50 in experiment [1] is 100 to 500 nM; in experiment [2] it was 1 to 5 µM.

With `CC(C)(O)c1cc2cc(c1)S(=O)(=O)NC(=O)Cc1c(ccc3c1CCC3)-c1ccnc(c1)OCC2` [Example 17, 17-(2-hydroxypropan-2-yl)-22-oxa-14λ^6-thia-13,24-diazapentacyclo-[21.3.1.1^15,19.0^2,10.0^5,9]octacosa-1(26),2,4,9,15,17,19(28),23(27),24-nonaene-12,14,14-trione], the IC50 in experiment [1] was 500 to 1000 nM; in experiment [2], 1 to 5 µM.

`COc1cn2nc1S(=O)(=O)NC(=O)Cc1c(cc(F)cc1C(C)C)-c1ccnc(c1)OCC2(C)C` [Example 19]: the concentration for half-maximal inhibition (IC50) in experiment [1] fell in the range of 100 to 500 nM; in experiment [2], 0.5 to 1 µM.

Consider `CC(C)c1cc(F)cc2c1CC(=O)NS(=O)(=O)c1nn(cc1F)C1(CC1)COc1cc-2ccn1` [Example 20], for which the values for the 50% inhibitory concentration (IC50) in experiment [1] and in experiment [2] were 500 to 1000 nM and 1 to 5 µM, respectively.

Consider `CC(C)c1cccc2c1CC(=O)NS(=O)(=O)c1cnn(c1)CCOc1cc-2ccn1` [Example 21], for which the IC50 lay within 1000 to 5000 nM in experiment [1] and 5 to 10 µM in experiment [2].

Consider `CC(C)c1cc(F)cc2c1CC(=O)NS(=O)(=O)c1cnn(c1)CCOc1cc-2ccn1` [Example 22], for which the figures for the concentration for half-maximal inhibition (IC50) in experiment [1] and in experiment [2] were 1000 to 5000 nM and 5 to 10 µM, respectively.

Consider `Cc1nn2cc1S(=O)(=O)NC(=O)Cc1c(cccc1C(C)C)-c1ccnc(c1)OCC2(C)C` [Example 24], for which the IC50 lay in the range of 500 to 1000 nM in experiment [1] and 1 to 5 µM in experiment [2].

`CC1(C)COc2cc(ccn2)-c2cccc(C3CC3)c2CC(=O)NS(=O)(=O)c2nn1cc2F` [Example 27]: the values for the IC50 in experiment [1] and in experiment [2] were 1000 to 5000 nM and 0.5 to 1 µM, respectively.

`CC(C)c1cccc2c1CC(=O)NS(=O)(=O)c1nn(cc1F)C(C)(C)CCOc1cc-2ccn1` [Example 31]: the IC50 in experiment [1] fell in the range of 1000 to 5000 nM; in experiment [2], 1 to 5 µM.

With `CC(C)c1cccc2c1CC(=O)NS(=O)(=O)c1cn(cn1)C(C)(C)COc1cc-2ccn1` [Example 33], the half-inhibitory concentration (IC50) fell in the range of 500 to 1000 nM in experiment [1] and 1 to 5 µM in experiment [2].

For the molecule `CC(C)c1cccc2c1CC(=O)NS(=O)(=O)c1cnn(n1)C(C)(C)COc1cc-2ccn1` [Example 36], the values for the half-maximal inhibitory concentration (IC50) in experiment [1] and in experiment [2] were 1000 to 5000 nM and 1 to 5 µM, respectively.

Turning to `CC(C)c1cccc2c1CC(=O)NS(=O)(=O)c1nn(c3ncccc13)C(C)(C)COc1cc-2ccn1` [Example 37], the half-inhibitory concentration (IC50) in experiment [1] fell in the range of 500 to 1000 nM; in experiment [2], 1 to 5 µM.

Turning to `CC(C)c1cccc2c1CC(=O)NS(=O)(=O)c1nn(cc1F)-c1ncccc1COc1cc-2ccn1` [Example 38], the results for the half-maximal inhibitory concentration (IC50) in experiment [1] and in experiment [2] were 1000 to 5000 nM and 1 to 5 µM, respectively.

For `CC(C)c1cc(F)cc2c1CC(=O)NS(=O)(=O)c1nn(c(C(=O)N(C)C)c1F)C(C)(C)COc1cc-2ccn1` [Example 39], the 50% inhibitory concentration (IC50) in experiment [1] lay in the range of 1000 to 5000 nM; in experiment [2] it was 1 to 5 µM.

Turning to `CCN1CCc2c3nn(c2C1)C(C)(C)COc1cc(ccn1)-c1cc(F)cc(C(C)C)c1CC(=O)NS3(=O)=O` [Example 40], the values for the IC50 in experiment [1] and in experiment [2] were 1000 to 5000 nM and 1 to 5 µM, respectively.

As to `CC(C)c1cc(F)cc2c1CC(=O)NS(=O)(=O)c1cc(C(=O)N(C)C)n(n1)C(C)(C)COc1cc-2ccn1` [Example 41], the IC50 in experiment [1] lay in the range of 1000 to 5000 nM; in experiment [2] it was 1 to 5 µM.

`CC(C)c1cccc2c1CC(=O)NS(=O)(=O)c1ccn(n1)CCOc1cc-2cnn1` [Example 44, 6-(propan-2-yl)-18-oxa-11λ^6-thia-10,15,20,21,24-pentaazatetracyclo-[17.3.1.1^12,15.0^2,7]tetracosa-1(22),2(7),3,5,12(24),13,19(23),20-octaene-9,11,11-trione]: the figures for the IC50 in experiment [1] and in experiment [2] were 1000 to 5000 nM and 5 to 10 µM, respectively.
